In patent US12479827B2, “Heteroaromatic carboxamide derivatives as plasma kallikrein inhibitors” (Boehringer Ingelheim International GmbH, priority 2020, dated 2025) one finds IC50 data, which are given here for 18 compounds.

T1 sequence (P03952 20-390 limits assumed): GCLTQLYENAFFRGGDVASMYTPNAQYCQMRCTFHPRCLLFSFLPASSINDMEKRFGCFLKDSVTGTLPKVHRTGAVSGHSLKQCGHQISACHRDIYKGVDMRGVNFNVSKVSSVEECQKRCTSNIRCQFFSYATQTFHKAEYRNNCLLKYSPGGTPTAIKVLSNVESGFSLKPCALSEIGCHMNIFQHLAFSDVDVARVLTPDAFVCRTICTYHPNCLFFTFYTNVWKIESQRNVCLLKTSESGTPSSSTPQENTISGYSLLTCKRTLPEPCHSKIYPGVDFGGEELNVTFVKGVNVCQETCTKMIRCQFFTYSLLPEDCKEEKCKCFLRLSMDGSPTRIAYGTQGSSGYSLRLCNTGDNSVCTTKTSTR
T1 sequence (P03952 391-638 limits assumed): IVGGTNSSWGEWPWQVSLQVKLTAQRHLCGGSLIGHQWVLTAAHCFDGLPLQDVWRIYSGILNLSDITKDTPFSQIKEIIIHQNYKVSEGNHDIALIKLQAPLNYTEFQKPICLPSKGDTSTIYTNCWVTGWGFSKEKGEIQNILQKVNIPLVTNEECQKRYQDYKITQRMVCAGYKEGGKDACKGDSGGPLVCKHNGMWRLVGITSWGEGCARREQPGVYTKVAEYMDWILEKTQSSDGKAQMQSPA

The experiment has as its target T1, Human PKK (Homo sapiens, UniProt P03952).
T1 construct: purchased Enzyme Research Laboratories
Description: Inhibition of PKK using an endpoint assay (human PKK). The settings on record: fluorogenic substrate H-Pro-Phe-Arg-AMC, 1 h room temperature, method names human or rat PKK, table does not say which. It counts as biochemical. The method, then: The ability of compounds of formula (I) to inhibit plasma kallikrein (PKK), Factor XIIa (FXIIa), Factor XIa (FXIa), Factor Xa (FXa), Factor IIa (alpha-thrombin; FIIa), plasmin, trypsin, tissue kallikrein 1 (TK1), Factor VIIa (FVIIa), or FVIIa complexed with Tissue Factor, phospholipids and CaCl2 (FVIIa/TF/PL/CaCl2) is determined using the following biochemical assays in assay buffer (100 mM Tris, 150 mM NaCL, adjusted to a pH of 7.8 with HCl, and containing 0.1% (w/v) BSA and 0.05% (v/v) Tween20) in the presence of 1% (v/v) DMSO:
Subsequently, PPACK II (Calbiochem) is added as a stop solution to achieve a final concentration of 1 μM and fluorescence is measured using an Envision Reader (PerkinElmer) with the wavelength excitation setting of 355 nm and the wavelength emission setting of 460 nm.
On to `Cc1nc(N2C[C@@H]3[C@@H](CO)[C@@H]3C2)ncc1Cn1cc(C(=O)N[C@@H]2CCc3c2ncn3C)cn1` [Example 235, 1-({2-[(1R,5S,6S)-6-(Hydroxymethyl)-3-azabicyclo[3.1.0]hexan-3-yl]-4-methylpyrimidin-5-yl}methyl)-N-[(4R)-1-methyl-1H,4H,5H,6H-cyclopenta[d]imidazol-4-yl]-1H-pyrazole-4-carboxamide], for which it took 214 nM to reach half-maximal inhibition (IC50).
To `Cn1cnc2c1CC[C@H]2NC(=O)c1cnn(Cc2ccc(N3CC4(CC4)C3)cn2)c1` [Example 19, 1-[(5-{5-Azaspiro[2.3]hexan-5-yl}pyridin-2-yl)-methyl]-N-[(4R)-1-methyl-1H,4H,5H,6H-cyclopenta[d]imidazol-4-yl]-1H-pyrazole-4-carboxamide] belongs 14.2 nM; to `Cc1nc(N2CC3C(C2)C3(F)F)ccc1Cc1ccc(C(=O)N[C@@H]2CCc3c2ncn3C)o1` (stereo partly drawn) [Example 189, 5-[(6-{6,6-Difluoro-3-azabicyclo[3.1.0]hexan-3-yl}-2-methylpyridin-3-yl)methyl]-N-[(4R)-1-methyl-1H,4H,5H,6H-cyclopenta[d]imidazol-4-yl]furan-2-carboxamide], 22.1 nM.
Next, `Cc1nc(N2CCC3(CC3)C2)ncc1Cn1cc(C(=O)N[C@@H]2CCc3c2ncn3C)cn1` [Example 230, 1-[(2-{5-Azaspiro[2.4]heptan-5-yl}-4-methylpyrimidin-5-yl)methyl]-N-[(4R)-1-methyl-1H,4H,5H,6H-cyclopenta[d]imidazol-4-yl]-1H-pyrazole-4-carboxamide]: 53.7 nM.
`Cn1cnc2c1CC[C@H]2NC(=O)c1cn(Cc2ccc(N3CC4(CC4)C3)nc2CO)nn1` [Example 61, 1-[(6-{5-Azaspiro[2.3]hexan-5-yl}-2-(hydroxymethyl)-pyridin-3-yl)methyl]-N-[(4R)-1-methyl-1H,4H,5H,6H-cyclo-penta[d]imidazol-4-yl]-1H-1,2,3-triazole-4-carboxamide] had an IC50 of 3.1 nM.
Next, `CO[C@H]1[C@@H]2CC[C@H]1CN(c1ncc(Cn3cc(C(=O)N[C@@H]4CCc5c4ncn5C)cn3)c(C)n1)C2` [Example 234, 1-({2-[(1R,5S,8R)-8-Methoxy-3-azabicyclo[3.2.1]octan-3-yl]-4-methylpyrimidin-5-yl}methyl)-N-[(4R)-1-methyl-1H,4H,5H,6H-cyclopenta[d]imidazol-4-yl]-1H-pyrazole-4-carboxamide]: 350 nM; `Cn1cnc2c1CC[C@H]2NC(=O)c1cnn(Cc2cc(C#N)c(N3CC4CC4C3)c(C#N)c2)c1` (stereo partly drawn) [Example 197, 1-[(4-{3-azabicyclo[3.1.0]hexan-3-yl}-3,5-dicyanophenyl)methyl]-N-[(4R)-1-methyl-1H,4H,5H,6H-cyclopenta[d]imidazol-4-yl]-1H-pyrazole-4-carboxamide]: 13.4 nM.
Next, `Cn1cnc2c1CC[C@H]2NC(=O)c1cnn(Cc2cc(F)c(N3CC4CC4C3)c(F)c2)c1` (stereo partly drawn) [Example 191, 1-[(4-{3-Azabicyclo[3.1.0]hexan-3-yl}-3,5-difluorophenyl)methyl]-N-[(4R)-1-methyl-1H,4H,5H,6H-cyclopenta[d]imidazol-4-yl]-1H-pyrazole-4-carboxamide]: 169 nM; `Cc1nc(N2C[C@@H]3[C@H](C#N)[C@@H]3C2)ncc1Cn1cc(C(=O)N[C@@H]2CCc3c2ncn3C)cn1` [Example 224, 1-({2-[(1R,5S,6S)-6-Cyano-3-azabicyclo[3.1.0]Lhexan-3-yl]-4-methylpyrimidin-5-yl}methyl)-N-[(4R)-1-methyl-1H,4H,5H,6H-cyclopenta[d]imidazol-4-yl]-1H-pyrazole-4-carboxamide]: 302 nM; `Cc1cc(N2CC3CC3C2)ccc1Cn1cnc(C(=O)N[C@@H]2CCc3c2ncn3C)c1` (stereo partly drawn) [Example 205, 1-[(4-{3-azabicyclo[3.1.0]hexan-3-yl}-2-methylphenyl)methyl]-N-[(4R)-1-methyl-1H,4H,5H,6H-cyclopenta[d]imidazol-4-yl]-1H-imidazole-4-carboxamide]: 8.3 nM.
To `Cc1nc(N2CCC3(CC2)CC(C)(O)C3)ncc1Cn1cc(C(=O)N[C@@H]2CCc3c2ncn3C)cn1` [Example 223, 1-[(2-{2-Hydroxy-2-methyl-7-azaspiro[3.5]nonan-7-yl}-4-methylpyrimidin-5-yl)methyl]-N-[(4R)-1-methyl-1H,4H,5H,6H-cyclopenta[d]imidazol-4-yl]-1H-pyrazole-4-carboxamide] belongs 7540 nM; to `COc1nc(N2CC3C(C2)C3(F)F)ccc1Cn1cc(C(=O)N[C@@H]2CCc3c2ncn3C)cn1` (stereo partly drawn) [Example 221, 1-[(6-{6,6-Difluoro-3-azabicyclo[3.1.0]hexan-3-yl}-2-methoxypyridin-3-yl)methyl]-N-[(4R)-1-methyl-1H,4H,5H,6H-cyclopenta[d]imidazol-4-yl]-1H-pyrazole-4-carboxamide], 2.8 nM.
For the compound `Cc1nc(N2CCC3(CC2)CC3)ncc1Cn1cc(C(=O)N[C@@H]2CCc3c2ncn3C)cn1` [Example 237, 1-[(2-{6-Azaspiro[2.5]octan-6-yl}-4-methylpyrimidin-5-yl)methyl]-N-[(4R)-1-methyl-1H,4H,5H,6H-cyclopenta[d]imidazol-4-yl]-1H-pyrazole-4-carboxamide], the IC50 is 111 nM. This IC50 lies about 40-fold higher than the previous one.
`CC(C)Cc1nc(N2CC3CC3C2)ccc1Cn1cnc(C(=O)N[C@@H]2CCc3c2ncn3C)c1` (stereo partly drawn) [Example 100, 1-[(6-{3-Azabicyclo[3.1.0]hexan-3-yl}-2-(2-methylpropyl)pyridin-3-yl)methyl]-N-[(4R)-1-methyl-1H,4H,5H,6H-cyclopenta[d]imidazol-4-yl]-1H-imidazole-4-carboxamide] had an IC50 of 5.6 nM.
To `Cc1nc(N2C[C@@H]3[C@@H](C)[C@@H]3C2)ncc1Cn1cc(C(=O)N[C@@H]2CCc3c2ncn3C)cn1` [Example 229, N-[(4R)-1-Methyl-1H,4H,5H,6H-cyclopenta[d]imidazol-4-yl]-1-({4-methyl-2-[(1R,5S,6R)-6-methyl-3-azabicyclo[3.1.0]hexan-3-yl]pyrimidin-5-yl}methyl)-1H-pyrazole-4-carboxamide] belongs 110 nM; to `COC1C2CC1CN(c1ncc(Cn3cc(C(=O)N[C@@H]4CCc5c4ncn5C)cn3)c(C)n1)C2` (stereo partly drawn) [Example 233, 1-[(2-{6-Methoxy-3-azabicyclo[3.1.1]heptan-3-yl}-4-methylpyrimidin-5-yl)methyl]-N-[(4R)-1-methyl-1H,4H,5H,6H-cyclopenta[d]imidazol-4-yl]-1H-pyrazole-4-carboxamide], 81.4 nM.
Next, `Cc1nc(N2CC3C(C2)C3(C)C)ncc1Cn1cc(C(=O)N[C@@H]2CCc3c2ncn3C)cn1` (stereo partly drawn) [Example 228, 1-[(2-{6,6-Dimethyl-3-azabicyclo[3.1.0]hexan-3-yl}-4-methylpyrimidin-5-yl)methyl]-N-[(4R)-1-methyl-1H,4H,5H,6H-cyclopenta[d]imidazol-4-yl]-1H-pyrazole-4-carboxamide]: 126 nM.
To `Cc1nc(N2CCC3CC3C2)ncc1Cn1cc(C(=O)N[C@@H]2CCc3c2ncn3C)cn1` (stereo partly drawn) [Example 227, 1-[(2-{3-Azabicyclo[4.1.0]heptan-3-yl]-4-methylpyrimidin-5-yl)methyl]-N-[(4R)-1-methyl-1H,4H,5H,6H-cyclopenta[d]imidazol-4-yl]-1H-pyrazole-4-carboxamide] belongs 45.3 nM.
